Experimental data taken from PubChem BioAssay (NCI).
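Five concentrations, 48 hours, 96-well plates. At the TGI there is no net growth.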

Tests used:
Assay in all cases: NCI anticancer screen, dose series, 48 h
[1] = system: CAKI-1 renal
[2] = system: LXFL 529 NSCLC
[3] = system: LOX IMVI melanoma
[4] = system: IGROV1 ovarian
[5] = system: DLD-1 colon
[6] = system: SK-MEL-5 melanoma
[7] = system: NCI-H460 lung
[8] = system: EKVX NSCLC
[9] = system: A549 NSCLC
[10] = system: UO-31 renal
[11] = system: SF-268 CNS
[12] = system: ACHN renal
[13] = system: TK-10 renal
[14] = system: COLO 205 colon
[15] = system: MOLT-4 leukemia

CCOC(=O)c1cn2c([nH]c3ccccc32)c(C#N)c1=O was tested, and the TGI [1] was over 100 µM, the TGI [2] was over 100 µM and the TGI [3] was 56.8 µM. It also gave a TGI [4] of over 100 µM, a TGI [5] of over 100 µM and a TGI [6] of over 100 µM. For the same compound, the TGI [7] was over 100 µM, the TGI [8] was over 100 µM and the TGI [9] was over 100 µM. The TGI [10] was over 100 µM, the TGI [11] was over 100 µM and the TGI [12] was over 100 µM. The TGI [13] was over 100 µM, the TGI [14] was over 100 µM and the TGI [15] was over 100 µM.
In the case of C1=c2ccccc2=C2C(=C(c3ccccc3)C(c3ccccc3)=NN2c2ccccc2)S1, the TGI [1] is reported as over 100 µM, the TGI [2] is reported as over 100 µM and the TGI [3] is reported as over 100 µM. The TGI [4] was over 100 µM, the TGI [5] was over 100 µM and the TGI [6] was over 100 µM. For the same compound, the TGI [7] was over 100 µM, the TGI [8] was over 100 µM and the TGI [9] was over 100 µM. The TGI [10] was over 100 µM, the TGI [11] was over 100 µM and the TGI [12] was over 100 µM. The TGI [13] was over 100 µM, the TGI [14] was over 100 µM and the TGI [15] was over 100 µM.
Work on O=C(O)Cc1ccc2c(c1O)C(=O)c1c(ccc(CC(=O)O)c1O)C2=O yielded a TGI [1] of over 100 µM, a TGI [2] of over 100 µM and a TGI [3] of over 100 µM. It also gave a TGI [4] of over 100 µM, a TGI [5] of over 100 µM and a TGI [6] of over 100 µM. It also gave a TGI [7] of over 100 µM, a TGI [8] of over 100 µM and a TGI [9] of over 100 µM. The TGI [11] was over 100 µM, the TGI [12] was over 100 µM and the TGI [13] was over 100 µM. It also gave a TGI [14] of over 100 µM and a TGI [15] of over 100 µM.
With CCOC(=O)C1CC/C(=C(/C#N)C(=O)OC)N1 (centres undefined) the TGI [1] was over 100 µM, the TGI [2] was over 100 µM and the TGI [3] was over 100 µM. For the same compound, the TGI [4] was over 100 µM, the TGI [5] was over 100 µM and the TGI [6] was over 100 µM. The TGI [7] was over 100 µM, the TGI [8] was over 100 µM and the TGI [9] was over 100 µM. For the same compound, the TGI [10] was over 100 µM, the TGI [11] was over 100 µM and the TGI [12] was over 100 µM. It also gave a TGI [13] of over 100 µM, a TGI [14] of over 100 µM and a TGI [15] of over 100 µM.
With CC(C)c1cccc(C(C)C)c1NC1=CC(=O)C(=O)c2ccccc21 the TGI [1] was over 100 µM, the TGI [2] was over 100 µM and the TGI [3] was over 100 µM. It also gave a TGI [4] of over 100 µM, a TGI [5] of over 100 µM and a TGI [6] of over 100 µM. The TGI [7] was over 100 µM, the TGI [8] was over 100 µM and the TGI [9] was over 100 µM. The TGI [10] was over 100 µM, the TGI [11] was over 100 µM and the TGI [13] was over 100 µM. The TGI [14] was over 100 µM and the TGI [15] was over 100 µM.
Work on COC(=O)c1cc(C)n(NC(=O)OC(C)(C)C)c1C yielded a TGI [1] of over 100 µM, a TGI [2] of over 100 µM and a TGI [3] of over 100 µM. For the same compound, the TGI [4] was over 100 µM, the TGI [5] was over 100 µM and the TGI [6] was over 100 µM. It also gave a TGI [7] of over 100 µM, a TGI [8] of over 100 µM and a TGI [9] of over 100 µM. For the same compound, the TGI [10] was over 100 µM, the TGI [11] was over 100 µM and the TGI [12] was over 100 µM. For the same compound, the TGI [13] was over 100 µM, the TGI [14] was over 100 µM and the TGI [15] was over 100 µM.
O=S(Cc1cc2c(cc1Br)OCO2)c1ccccc1 (centres undefined) showed a TGI [1] of over 100 µM, a TGI [2] of over 100 µM and a TGI [3] of 30.7 µM. For the same compound, the TGI [4] was over 100 µM, the TGI [5] was 49.5 µM and the TGI [6] was over 100 µM. The TGI [7] was over 100 µM, the TGI [8] was over 100 µM and the TGI [9] was over 100 µM. The TGI [10] was over 100 µM, the TGI [11] was over 100 µM and the TGI [12] was over 100 µM. For the same compound, the TGI [13] was over 100 µM, the TGI [14] was over 100 µM and the TGI [15] was over 100 µM.
In the case of Nn1c(N=Nc2c(O)[nH]c3ccccc23)n[nH]c1=S, the TGI [1] is reported as over 100 µM, the TGI [2] is reported as over 100 µM and the TGI [3] is reported as over 100 µM. The TGI [4] was over 100 µM, the TGI [5] was over 100 µM and the TGI [7] was over 100 µM. It also gave a TGI [8] of over 100 µM, a TGI [9] of over 100 µM and a TGI [10] of over 100 µM. For the same compound, the TGI [11] was over 100 µM, the TGI [12] was over 100 µM and the TGI [13] was over 100 µM. It also gave a TGI [14] of over 100 µM and a TGI [15] of over 100 µM.
With CCOc1ccc(NC(=O)CCC(=O)NN)cc1 the TGI [1] was over 100 µM, the TGI [2] was over 100 µM and the TGI [3] was over 100 µM. It also gave a TGI [5] of over 100 µM, a TGI [6] of over 100 µM and a TGI [7] of over 100 µM. For the same compound, the TGI [8] was over 100 µM, the TGI [9] was over 100 µM and the TGI [10] was over 100 µM. It also gave a TGI [11] of over 100 µM, a TGI [12] of over 100 µM and a TGI [13] of over 100 µM. For the same compound, the TGI [14] was over 100 µM and the TGI [15] was over 100 µM.
With O=C(/C=C/c1ccc(Cl)c(Cl)c1)C1CCC(Cl)CC1 (centres undefined) the TGI [1] was 50.1 µM, the TGI [2] was 32.3 µM and the TGI [3] was 30.7 µM. For the same compound, the TGI [4] was 33.9 µM, the TGI [5] was 29.8 µM and the TGI [6] was 33.4 µM. For the same compound, the TGI [7] was 73.8 µM, the TGI [8] was 32 µM and the TGI [9] was 46.8 µM. It also gave a TGI [10] of 33.9 µM, a TGI [11] of 37.1 µM and a TGI [12] of 32 µM. The TGI [13] was 90.3 µM and the TGI [14] was 50.3 µM.
For COC(=O)/C(=N\O)C(C(=O)C=C(C)C)C(=O)C(=O)Nc1ccccc1C (centres undefined), the TGI [1] was over 100 µM, the TGI [2] was over 100 µM and the TGI [3] was over 100 µM. It also gave a TGI [4] of over 100 µM, a TGI [5] of over 100 µM and a TGI [6] of over 100 µM. The TGI [7] was over 100 µM, the TGI [8] was over 100 µM and the TGI [9] was over 100 µM. The TGI [10] was over 100 µM, the TGI [11] was over 100 µM and the TGI [12] was over 100 µM. The TGI [13] was over 100 µM, the TGI [14] was over 100 µM and the TGI [15] was over 100 µM.
Work on N#Cc1ccccc1Nc1ccccc1S yielded a TGI [1] of over 100 µM, a TGI [2] of 59.3 µM and a TGI [3] of 33.6 µM. The TGI [4] was 71.2 µM, the TGI [5] was over 100 µM and the TGI [6] was 44.8 µM. It also gave a TGI [7] of over 100 µM, a TGI [8] of over 100 µM and a TGI [9] of over 100 µM. The TGI [10] was 72.4 µM, the TGI [11] was over 100 µM and the TGI [12] was over 100 µM. For the same compound, the TGI [13] was over 100 µM, the TGI [14] was over 100 µM and the TGI [15] was 33.1 µM.
NNC(=S)N/N=C/C(Cl)=C(\Cl)C(=O)O was tested, and the TGI [1] was over 100 µM, the TGI [2] was over 100 µM and the TGI [3] was over 100 µM. The TGI [4] was over 100 µM, the TGI [5] was over 100 µM and the TGI [6] was over 100 µM. For the same compound, the TGI [7] was over 100 µM, the TGI [8] was over 100 µM and the TGI [9] was over 100 µM. It also gave a TGI [10] of over 100 µM, a TGI [11] of over 100 µM and a TGI [12] of over 100 µM. For the same compound, the TGI [13] was over 100 µM and the TGI [15] was over 100 µM.
